Here are results for 14 compounds from patent US20180194762A1 (Pharmacyclics LLC, priority 2017, published 2018).

Like-named read-outs stand apart in the source and are kept apart here. Where only a bound is given, the exact number is not on record here.

Format in all cases: biochemical
In one experiment the target is T1, Btk (Homo sapiens, UniProt Q06187).
T1 construct: purified from insect cells as a full-length construct containing a N-terminal 6X-His tag; His6 (N); made in house; host or cells: insect cells (Method C)
The experiment is described as follows: Btk in vitro inhibitory activity (one of Method A TR-FRET, Method B electrophoretic mobility shift, Method C radiometric filter binding). In short, it runs like this: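 Three alternative formats were used. A radiometric filter-binding read used 8 nM full-length His-BTK with 0.2 mg/mL poly(Glu-Tyr) 4:1 (C); microfluidic separation of 1 μM FAM-peptide by 1 nM BTK gave IC50 from 12-point curves (B); TR-FRET at Km ATP, 0.5 nM Btk, gave Ki(app)-derived IC50 (A).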
In general terms: Mobility shift assays separate free from complexed probe on a gel.

A further experiment concerns the target T2, TEC (Homo sapiens, UniProt P42680).
T2 sequence (P42680 1-631): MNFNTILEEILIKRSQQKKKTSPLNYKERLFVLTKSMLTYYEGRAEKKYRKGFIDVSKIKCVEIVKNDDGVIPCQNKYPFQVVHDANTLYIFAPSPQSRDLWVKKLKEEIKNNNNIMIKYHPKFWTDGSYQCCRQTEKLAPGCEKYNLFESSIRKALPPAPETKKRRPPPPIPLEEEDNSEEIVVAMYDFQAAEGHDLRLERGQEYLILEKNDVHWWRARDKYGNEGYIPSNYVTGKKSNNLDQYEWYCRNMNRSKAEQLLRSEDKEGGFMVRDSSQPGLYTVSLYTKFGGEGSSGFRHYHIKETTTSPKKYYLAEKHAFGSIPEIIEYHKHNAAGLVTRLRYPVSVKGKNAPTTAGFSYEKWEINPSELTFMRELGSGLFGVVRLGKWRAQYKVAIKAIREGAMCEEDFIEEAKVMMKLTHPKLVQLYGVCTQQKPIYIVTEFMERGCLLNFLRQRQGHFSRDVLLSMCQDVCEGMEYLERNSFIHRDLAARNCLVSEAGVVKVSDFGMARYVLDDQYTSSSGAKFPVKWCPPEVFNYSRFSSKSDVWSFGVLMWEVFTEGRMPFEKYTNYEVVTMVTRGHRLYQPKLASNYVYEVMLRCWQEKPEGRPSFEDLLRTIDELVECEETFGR
Nature of the experiment: Inhibition of a panel of kinases (in vitro HotSpot kinase assay, 33P-ATP, 1 μM ATP). The settings on record: for IC50: HotSpot kinase assay, 1 μM ATP; for TEC/Btk: ratio of TEC IC50 to Btk IC50 (selectivity). Summed up: (§1)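 At 1 μM ATP spiked with 33P-ATP, substrate phosphorylation by the purified enzymes gives the extent of inhibition.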

In a further experiment the target is T3, panel of kinases (Homo sapiens, UniProt P51813).
T3 sequence (P51813 1-675): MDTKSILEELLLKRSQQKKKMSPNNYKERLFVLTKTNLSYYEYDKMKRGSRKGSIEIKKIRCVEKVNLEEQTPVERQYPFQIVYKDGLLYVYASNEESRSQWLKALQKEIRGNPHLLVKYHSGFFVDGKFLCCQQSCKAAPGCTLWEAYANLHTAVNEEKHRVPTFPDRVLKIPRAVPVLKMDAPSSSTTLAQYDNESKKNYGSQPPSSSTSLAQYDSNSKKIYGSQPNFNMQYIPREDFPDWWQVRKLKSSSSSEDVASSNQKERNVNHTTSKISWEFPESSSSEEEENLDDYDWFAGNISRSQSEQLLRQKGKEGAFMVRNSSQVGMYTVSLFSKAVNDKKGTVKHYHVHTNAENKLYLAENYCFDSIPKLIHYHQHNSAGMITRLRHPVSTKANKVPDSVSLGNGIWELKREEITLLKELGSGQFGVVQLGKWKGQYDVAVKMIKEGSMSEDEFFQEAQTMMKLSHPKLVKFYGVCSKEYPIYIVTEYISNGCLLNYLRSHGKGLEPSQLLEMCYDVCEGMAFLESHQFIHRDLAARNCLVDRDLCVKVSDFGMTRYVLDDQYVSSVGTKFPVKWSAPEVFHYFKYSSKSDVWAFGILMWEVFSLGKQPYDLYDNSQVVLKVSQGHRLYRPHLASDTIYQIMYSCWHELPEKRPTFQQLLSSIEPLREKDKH
Nature of the experiment: Inhibition of a panel of kinases (in vitro HotSpot kinase assay, 33P-ATP, 1 μM ATP), other kinases. Particulars: BMX wild-type, read-out: BMX-WT IC50. Summed up: as §1

The mark [1] stands for this setting: wild-type Btk, read-out: Btk-WT IC50.
[2] abbreviates: method is one of A, B or C, not stated which, read-out: IC50 values against Btk.

As a reminder, the IC50 is the point on the concentration scale where inhibition reaches its midpoint.

T1 sequence (Q06187 whole entry): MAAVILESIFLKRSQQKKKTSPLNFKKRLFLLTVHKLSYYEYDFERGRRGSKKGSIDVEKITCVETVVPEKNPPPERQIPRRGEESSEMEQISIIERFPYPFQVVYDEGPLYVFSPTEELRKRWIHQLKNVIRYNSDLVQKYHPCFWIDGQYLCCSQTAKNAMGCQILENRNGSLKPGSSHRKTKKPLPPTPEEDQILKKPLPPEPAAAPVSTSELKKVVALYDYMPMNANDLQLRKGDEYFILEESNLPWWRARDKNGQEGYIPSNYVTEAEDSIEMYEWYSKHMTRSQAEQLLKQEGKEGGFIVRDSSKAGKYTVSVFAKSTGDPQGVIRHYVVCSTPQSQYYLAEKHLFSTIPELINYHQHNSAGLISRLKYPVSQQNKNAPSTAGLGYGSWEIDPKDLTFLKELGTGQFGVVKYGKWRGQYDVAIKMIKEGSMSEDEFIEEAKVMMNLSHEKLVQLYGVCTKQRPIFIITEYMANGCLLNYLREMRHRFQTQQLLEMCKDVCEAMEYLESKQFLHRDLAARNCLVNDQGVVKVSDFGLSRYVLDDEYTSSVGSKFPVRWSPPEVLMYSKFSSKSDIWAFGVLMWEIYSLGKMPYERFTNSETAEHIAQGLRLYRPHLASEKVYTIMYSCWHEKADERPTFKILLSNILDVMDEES

With `CC(=O)OCC(=O)N1C[C@H](Nc2n[nH]c3nccc(-c4ccc(CNC(=O)c5nc(C(C)(C)C)no5)c(F)c4)c23)CC[C@@H]1C` [Example 421, 2-[(2S,5R)-5-{[4-(4-{[(3-tert-butyl-1,2,4-oxadiazole-5-carbonyl)amino]methyl}-3-fluorophenyl)-1H-pyrazolo[3,4-b]pyridin-3-yl]amino}-2-methylpiperidin-1-yl]-2-oxoethyl acetate], the IC50 on Btk (setting [1]) worked out at 0.915 nM; at TEC, 1190 nM; at panel of kinases, 3130 nM.

As for `C=CC(=O)N1CC[C@@H](Nc2n[nH]c3nccc(-c4ccc(CC(=O)Nc5noc(C(C)(C)C)n5)c(F)c4)c23)C1` [Example 135, N-(5-tert-butyl-1,2,4-oxadiazol-3-yl)-2-[2-fluoro-4-(3-{[(3R)-1-(prop-2-enoyl)pyrrolidin-3-yl]amino}-1H-pyrazolo[3,4-b]pyridin-4-yl)phenyl]acetamide], the IC50 at Btk (setting [2]) was under 10 nM; on Btk (setting [1]) it was 8.87 nM; against TEC, 475 nM; at panel of kinases, 226 nM. Besides, the TEC/Btk on TEC turned out to be 54.

`CC(C)(C)c1noc(C(=O)NCc2ccc(-c3ccnc4[nH]nc(N5CCC(NS(=O)(=O)C6CC6)CC5)c34)cc2F)n1` [Example 224, 3-tert-butyl-N-{[4-(3-{4-[(cyclopropanesulfonyl)amino]piperidin-1-yl}-1H-pyrazolo[3,4-b]pyridin-4-yl)-2-fluorophenyl]methyl}-1,2,4-oxadiazole-5-carboxamide]: the results for the IC50 on Btk (setting [1]), against TEC and at panel of kinases were 0.0926 nM, 289 nM and 249 nM, respectively. The TEC/Btk at TEC was 3121.

For `CC(=O)N[C@@H]1CCN(c2n[nH]c3nccc(-c4ccc(CNC(=O)c5cc(C(C)(C)C#N)on5)c(F)c4)c23)C1` [Example 403, N-[(4-{3-[(3R)-3-acetamidopyrrolidin-1-yl]-1H-pyrazolo[3,4-b]pyridin-4-yl}-2-fluorophenyl)methyl]-5-(2-cyanopropan-2-yl)-1,2-oxazole-3-carboxamide], the 50% inhibitory concentration (IC50) at Btk (setting [1]) is 17.3 nM; against TEC, 1400 nM; at panel of kinases, 1810 nM.

Regarding `CC(C)(C)c1nc(C(=O)NCc2ccc(-c3ccnc4[nH]nc(N5CCC[C@H](C(=O)O)C5)c34)cc2F)no1` [Example 252, (3S)-1-[4-(4-{[(5-tert-butyl-1,2,4-oxadiazole-3-carbonyl)amino]methyl}-3-fluorophenyl)-1H-pyrazolo[3,4-b]pyridin-3-yl]piperidine-3-carboxylic acid], the IC50 was 0.511 nM on Btk (setting [1]), 386 nM against TEC and 529 nM at panel of kinases. Moreover, the TEC/Btk at TEC turned out to be 755.

As for `C[C@@H](NC(=O)c1nc(C(C)(C)C)no1)c1ccc(-c2ccnc3[nH]nc(N[C@@H]4CC[C@H](C)N(C(=O)N(C)C)C4)c23)cc1F` [Example 193, (2S,5R)-5-{[4-(4-{(1R)-1-[(3-tert-butyl-1,2,4-oxadiazole-5-carbonyl)amino]ethyl}-3-fluorophenyl)-1H-pyrazolo[3,4-b]pyridin-3-yl]amino}-N,N,2-trimethylpiperidine-1-carboxamide], the IC50 is 0.355 nM at Btk (setting [1]), 381 nM against TEC and 1040 nM at panel of kinases. Besides, the TEC/Btk on TEC amounted to 1073.

As to `CN(C)C(=O)N1CC[C@@H](Nc2n[nH]c3nccc(-c4ccc(CNC(=O)c5coc(C6CC6)n5)c(F)c4)c23)C1` [Example 329, 2-cyclopropyl-N-{[4-(3-{[(3R)-1-(dimethylcarbamoyl)pyrroli-din-3-yl]amino}-1H-pyrazolo[3,4-b]pyridin-4-yl)-2-fluorophenyl]methyl}-1,3-oxazole-4-carboxamide], the IC50 worked out at 307 nM on Btk (setting [1]), 5720 nM at TEC and 5900 nM on panel of kinases.

Regarding `CC(C)(C#N)c1cc(C(=O)NCc2ccc(-c3ccnc4[nH]nc(N5CC[C@@H](N)C5)c34)cc2F)no1` [Example 401, N-[(4-{3-[(3R)-3-aminopyrrolidin-1-yl]-1H-pyrazolo[3,4-b]pyridin-4-yl}-2-fluorophenyl)methyl]-5-(2-cyanopropan-2-yl)-1,2-oxazole-3-carboxamide], the IC50 was 33.8 nM on Btk (setting [1]), 1280 nM at TEC and 885 nM on panel of kinases.

Take `C=CC(=O)N1CC[C@@H](Nc2n[nH]c3nccc(-c4ccc(CNC(=O)c5cnc(N(C)C)o5)c(F)c4)c23)C1` [Example 177, 2-(dimethylamino)-N-{[2-fluoro-4-(3-{[(3R)-1-(prop-2-enoyl)pyrrolidin-3-yl]amino}-1H-pyrazolo[3,4-b]pyridin-4-yl)phenyl]methyl}-1,3-oxazole-5-carboxamide]: the IC50 is under 10 nM on Btk (setting [2]), 3.91 nM at Btk (setting [1]), 99 nM against TEC and 43 nM at panel of kinases. Also, at TEC, the TEC/Btk is 25.

As to `C[C@@H](NC(=O)c1nc(C(C)(C)C)no1)c1ccc(-c2ccnc3[nH]nc(N4CCS(=O)(=O)CC4)c23)cc1` [Example 220, 3-tert-butyl-N-[(1R)-1-{4-[3-(1,1-dioxo-1λ^6-thiomorpholin-4-yl)-1H-pyrazolo[3,4-b]pyridin-4-yl]phenyl}ethyl]-1,2,4-oxadiazole-5-carboxamide], the IC50 was 1.49 nM at Btk (setting [1]), 8960 nM against TEC and 5700 nM on panel of kinases. The TEC/Btk at TEC is listed as 6013.

As to `CN(C)C(=O)N1CC[C@@H](Nc2n[nH]c3nccc(-c4ccc(CNC(=O)c5cc(C(C)(C)C)on5)c(F)c4)c23)C1` [Example 115, 5-tert-butyl-N-{[4-(3-{[(3R)-1-(dimethylcarbamoyl)pyrrolidin-3-yl]amino}-1H-pyrazolo[3,4-b]pyridin-4-yl)-2-fluorophenyl]methyl}-1,2-oxazole-3-carboxamide], the values for the IC50 at Btk (setting [1]), on TEC and at panel of kinases were 25.7 nM, 6320 nM and 6450 nM, respectively. On TEC, the TEC/Btk stood at 246.

`C=CC(=O)N1CC[C@@H](Nc2n[nH]c3nccc(-c4ccc(CNC(=O)c5cn6ccccc6n5)c(F)c4)c23)C1` [Example 377, N-{[2-fluoro-4-(3-{[(3R)-1-(prop-2-enoyl)pyrrolidin-3-yl]amino}-1H-pyrazolo[3,4-b]pyridin-4-yl)phenyl]methyl}imidazo [1,2-a]pyridine-2-carboxamide]: the IC50 on Btk (setting [1]) was found to be 40.6 nM; against TEC, 671 nM; at panel of kinases it was 133 nM.

As to `C=CC(=O)N1CC[C@@H](Nc2n[nH]c3nccc(-c4ccc(CNC(=O)c5ccc6oc(C)nc6c5)c(F)c4)c23)C1` [Example 380, (R)-N-{[2-fluoro-4-(3-{[1-(prop-2-enoyl)pyrrolidin-3-yl]amino}-1H-pyrazolo[3,4-b]pyridin-4-yl)phenyl]methyl}-2-methyl-1,3-benzoxazole-5-carboxamide], the IC50 at Btk (setting [1]) came out at 336 nM; against TEC it was 662 nM; at panel of kinases it was 101 nM.

`C=CC(=O)N1C[C@H](Nc2n[nH]c3nccc(-c4ccc(CNC(=O)c5cc(C(C)(C)C)on5)c(F)c4)c23)CC[C@@H]1C` [Example 146, 5-tert-butyl-N-{[2-fluoro-4-(3-{[(3R,6S)-6-methyl-1-(prop-2-enoyl)piperidin-3-yl]amino}-1H-pyrazolo[3,4-b]pyridin-4-yl)phenyl]methyl}-1,2-oxazole-3-carboxamide]: the IC50 on Btk (setting [2]) is under 10 nM; at Btk (setting [1]), 0.202 nM; at TEC, 47 nM; on panel of kinases, 21 nM. Further, the TEC/Btk on TEC was 234.
